For three molecules, Normal melting temperature results are on record in the NIST ThermoML archive (doi:10.1016/j.fluid.2014.12.036).

Numbers after ± are expanded uncertainties.

For this data set the following is noted: Crystal; visual observation.
In the case of `CCCCCCCCCCCCCCCC` [hexadecane], the Normal melting temperature was found to be 18.4 ± 0.4 °C.
For the molecule `CCCCCCCCCCCCCCCCCC` [octadecane], the Normal melting temperature was 28.5 ± 0.4 °C.
In the case of `CCCCCCCCCCCCCC` [tetradecane] it was 6.2 ± 0.4 °C.
